Source: PMC4619705 (PLoS ONE, 2015)
“And” between values parts separate entries of the source, which are not always exact repeats. Equal values may be shown once. “Also recorded” adds a separate entry of the source.

Legend:
β3γ2L GABAARs = biological target: T1, β3γ2L GABAARs (Homo sapiens, UniProt P18507+P28472); experiment: Two-electrode voltage clamp of β3γ2L GABAARs expressed at various β3:γ2L mRNA ratios in Xenopus oocytes; type: cell-based; conditions: for EC50: EC50 (95% CI) of direct activation; for EC50 / E max ± SEM (300 μM 2’MeO6MF-elicited current normalised against 3 mM GABA response) / n H ± SEM (Hill slope) of direct activation: -60 mV; for 2’MeO6MF activity: 100 μM; for Enhancement of GABA current (co-application): GABA EC3–10 + 100 or 300 μM ligand, data not shown; for Expression level (current response elicited by GABA): 3 mM GABA; for Frac (95% CI), proportion of maximal response mediated by the more potent component / n H_1 (Hill slope) / n H_2 (Hill slope): biphasic fit; for n H_1 (Hill slope) / n H_2 (Hill slope): Hill slopes constrained to 1
T1 construct: expressed in transfected cells; host or cells: Xenopus laevis oocytes injected with β3 and γ2L mRNAs at 1:1 to 1:100
T1 sequence (P28472 26-473): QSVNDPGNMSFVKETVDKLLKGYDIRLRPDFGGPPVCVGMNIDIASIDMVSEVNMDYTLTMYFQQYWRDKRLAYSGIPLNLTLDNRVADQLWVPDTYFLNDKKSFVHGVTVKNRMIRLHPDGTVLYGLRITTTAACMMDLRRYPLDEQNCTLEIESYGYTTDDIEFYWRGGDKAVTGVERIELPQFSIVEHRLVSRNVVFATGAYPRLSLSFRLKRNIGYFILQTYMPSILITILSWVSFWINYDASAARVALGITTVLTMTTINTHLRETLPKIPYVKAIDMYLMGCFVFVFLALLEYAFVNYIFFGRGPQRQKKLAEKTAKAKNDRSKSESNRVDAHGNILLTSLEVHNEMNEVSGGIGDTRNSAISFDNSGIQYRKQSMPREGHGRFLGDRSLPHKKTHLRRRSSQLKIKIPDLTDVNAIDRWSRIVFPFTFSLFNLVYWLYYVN
T1 sequence (P18507 40-475): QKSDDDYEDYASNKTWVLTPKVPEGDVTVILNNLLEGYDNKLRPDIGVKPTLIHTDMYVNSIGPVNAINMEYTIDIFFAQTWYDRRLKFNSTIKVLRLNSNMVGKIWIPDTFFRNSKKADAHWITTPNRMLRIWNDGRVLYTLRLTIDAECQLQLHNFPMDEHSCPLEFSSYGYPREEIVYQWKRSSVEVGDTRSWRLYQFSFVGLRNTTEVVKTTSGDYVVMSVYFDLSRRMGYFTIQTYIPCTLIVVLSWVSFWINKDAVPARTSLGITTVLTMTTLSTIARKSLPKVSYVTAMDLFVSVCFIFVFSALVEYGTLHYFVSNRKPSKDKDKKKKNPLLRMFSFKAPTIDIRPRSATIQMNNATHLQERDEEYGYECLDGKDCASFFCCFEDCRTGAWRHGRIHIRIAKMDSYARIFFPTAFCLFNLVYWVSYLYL
Source text: Human complementary DNA (cDNA) of GABAAR α2 subunit (vector: pCMV6-XL5) was purchased from OriGene Technologies (Rockville, MD, USA), and the human β3 (vector: pGEMHE) and γ2L (vector: pCDM8) subunits were generous gifts from Dr. Bjarke Ebert (H. Lundbeck A/S, Valby, Denmark) and Dr. Paul Whiting (Merck, Sharp and Dohme Research Laboratories, Harlow, Essex, UK) respectively. […] Plasmid vectors with the cDNA incorporated were linearised using appropriate restriction endonucleases (α2: SmaI; β3: NheI; γ2L: NotI). Capped RNA transcripts were synthesised from linearised plasmids using the mMessage mMachine T7 transcript kit from Ambion (Austin, TX, USA). Purified messenger RNA (mRNA) was dissolved in nuclease-free water (Ambion, Austin, TX, USA), and its quality was assessed using 1% agarose gel electrophoresis. The concentration of each subunit mRNA was measured using Nanodrop ND-100 UV-Vis spectrophotometer (Thermo Fisher Scientific, North Ryde, NSW, Australia).
Various combinations of α2, β3 and γ2L subunit mRNAs were mixed to different ratios as stated in the text, and diluted accordingly to a concentration of 5 ng/μL (unless otherwise stated). […] Injected oocytes were stored in ND96 storage solution supplemented with 50 μg/mL gentamycin and tetracycline at 18°C. Two-electrode voltage clamp recordings were performed on oocytes 2–4 days post-injection at room temperature (20–25°C) using a GeneClamp 500B amplifier (ADInstruments, Sydney, NSW, Australia) or a Warner OC-725C Oocyte Clamp (Warner Instrument Corp, Hamden, CT, USA). […] The recording microelectrodes (0.2–1.1 MΩ) were generated from capillary glass (Harvard Apparatus, Holliston, MA, USA) using a single-stage glass microelectrode puller (Narishige, Tokyo, Japan), and were filled with 3 M KCl solution. The perfusion system was built using a series of polycarbonate, high-density polyethylene two-way stopcocks (Qosina, Edgewood, NY, USA), connected through tubing to the recording chamber (100 μL), where the oocyte was continuously perfused with ND96 recording solution (96 mM NaCl, 2 mM KCl, 1 mM MgCl2, 1.8 mM CaCl2, 5 mM HEPES hemisodium; pH 7.4) at an approximate rate of 5 mL/min.
Perfusates containing these chemicals were made up fresh before each application. The concentration-response curves of agonists were obtained by exposing oocytes to increasing concentrations of agonists until the currents peaked. […] All experiments were performed using at least two different batches of oocytes.
Prism (version 5.04; GraphPad Software, La Jolla, CA, USA) was used for data analysis.
In all cases, we constrained the bottom to 0, and when fitting data to the biphasic model, the Hill slopes were constrained to 1. Statistical comparisons of results for different injection ratios of β3γ2L receptors were performed using ANOVA with Tukey’s post-hoc test. When comparing results from different injection ratios of β3γ2L receptors with α2β3γ2L receptors, the ANOVA Dunnett’s test was used. Pairwise comparisons were performed using Student’s t test. Statistical significance was attained at p < 0.05.

α2β3γ2L GABAARs = biological target: T2, α2β3γ2L GABAARs (Homo sapiens, UniProt P18507+P28472+P47869); design: method as in PMID 21797842; conditions: α2β3γ2L 1:1:10 injection ratio; cited from earlier work
T2 construct: expressed in transfected cells; host or cells: Xenopus laevis oocytes injected with capped mRNA, α2:β3:γ2L 3:1:3
T2 sequence (P47869 29-451): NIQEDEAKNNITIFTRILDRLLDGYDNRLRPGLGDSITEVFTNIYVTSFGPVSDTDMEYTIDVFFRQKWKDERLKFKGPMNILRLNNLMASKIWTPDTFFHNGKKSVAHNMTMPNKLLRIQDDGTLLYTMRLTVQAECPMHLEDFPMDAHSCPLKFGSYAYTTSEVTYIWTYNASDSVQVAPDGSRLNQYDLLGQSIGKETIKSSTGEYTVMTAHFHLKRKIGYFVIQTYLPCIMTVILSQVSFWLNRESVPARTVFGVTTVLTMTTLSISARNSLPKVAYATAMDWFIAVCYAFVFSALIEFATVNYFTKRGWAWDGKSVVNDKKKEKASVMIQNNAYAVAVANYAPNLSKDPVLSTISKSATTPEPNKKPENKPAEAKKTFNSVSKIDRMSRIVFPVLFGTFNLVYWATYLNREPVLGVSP
T2 sequence (P28472 26-473): as the sequence (P28472 26-473) above
T2 sequence (P18507 40-475): as the sequence (P18507 40-475) above

COc1ccccc1-c1cc(=O)c2cc(C)ccc2o1 [2’MeO6MF, 2’-methoxy-6-methylflavone]
EC50 (β3γ2L GABAARs; β3γ2L 1:15): 45 µM
EC50 (β3γ2L GABAARs; β3γ2L 1:50): 62 µM
EC50 (β3γ2L GABAARs; β3γ2L 1:100): 63 µM
2’MeO6MF activity (β3γ2L GABAARs; β3γ2L 1:1): inhibited the constitutive activity; also recorded: inverse agonist; also recorded: Inverse agonism
2’MeO6MF activity (β3γ2L GABAARs; β3γ2L 1:5): mixed agonist and inverse agonist activity; also recorded: mixed inverse agonist and agonist effect; also recorded: Inverse agonism/activation
2’MeO6MF activity (β3γ2L GABAARs; β3γ2L 1:10): mixed agonist and inverse agonist activity; also recorded: mixed inverse agonist and agonist effect; also recorded: Inverse agonism/activation
2’MeO6MF activity (β3γ2L GABAARs; β3γ2L 1:15): directly activated receptors expressed efficaciously; also recorded: Activation
Elicited current, % of the 3 mM GABA responses (mean ± SEM) (β3γ2L GABAARs; β3γ2L 1:15, 100 μM ligand): 87 ± 4.5%
E max ± SEM (300 μM 2’MeO6MF-elicited current normalised against 3 mM GABA response) (β3γ2L GABAARs; β3γ2L 1:15): 1.2 ± 0.10
n H ± SEM (Hill slope) of direct activation (β3γ2L GABAARs; β3γ2L 1:15): 1.8 ± 0.42
Enhancement of GABA current (co-application) (β3γ2L GABAARs; β3γ2L 1:15): No enhancement
2’MeO6MF activity (β3γ2L GABAARs; β3γ2L 1:20): variable efficacy; also recorded: Activation
Elicited current, % of the 3 mM GABA responses (mean ± SEM) (β3γ2L GABAARs; β3γ2L 1:20, 100 μM ligand): approximately 34 ± 4.0%
Relative efficacy, range across oocytes, % of the 3 mM GABA responses (β3γ2L GABAARs; β3γ2L 1:20, 100 μM ligand): 1.0 to 120%
2’MeO6MF activity (β3γ2L GABAARs; β3γ2L 1:50): activation with low efficacy
Elicited current, % of the 3 mM GABA responses (mean ± SEM) (β3γ2L GABAARs; β3γ2L 1:50, 100 μM ligand): around 6.7 ± 1.2%
E max ± SEM (300 μM 2’MeO6MF-elicited current normalised against 3 mM GABA response) (β3γ2L GABAARs; β3γ2L 1:50): 0.086 ± 0.018
n H ± SEM (Hill slope) of direct activation (β3γ2L GABAARs; β3γ2L 1:50): 1.4 ± 0.88
2’MeO6MF activity (β3γ2L GABAARs; β3γ2L 1:100): activation with low efficacy
Elicited current, % of the 3 mM GABA responses (mean ± SEM) (β3γ2L GABAARs; β3γ2L 1:100, 100 μM ligand): ~5.1 ± 0.72%
E max ± SEM (300 μM 2’MeO6MF-elicited current normalised against 3 mM GABA response) (β3γ2L GABAARs; β3γ2L 1:100): 0.10 ± 0.020
n H ± SEM (Hill slope) of direct activation (β3γ2L GABAARs; β3γ2L 1:100): 1.6 ± 0.76
Enhancement of GABA current (co-application) (β3γ2L GABAARs; β3γ2L 1:100): No enhancement
Agonist efficacy (direct activation) (α2β3γ2L GABAARs): full agonist

NCCCC(=O)O [GABA, γ-aminobutyric acid]
Expression level (current response elicited by GABA) (β3γ2L GABAARs; β3γ2L 1:1): 110 ± 34 nA
Expression level (current response elicited by GABA) (β3γ2L GABAARs; β3γ2L 1:5): 270 ± 80 nA
Expression level (current response elicited by GABA) (β3γ2L GABAARs; β3γ2L 1:10): 310 ± 61 nA
I max ± SEM (current amplitude elicited by 30 mM GABA) (β3γ2L GABAARs; β3γ2L 1:15): 780 ± 220 nA
Expression level (current response elicited by GABA) (β3γ2L GABAARs; β3γ2L 1:15): 490 ± 47 nA
n H_1 ± SEM (Hill slope) (β3γ2L GABAARs; β3γ2L 1:15, monophasic fit): 0.54 and 0.54 ± 0.040
Expression level (current response elicited by GABA) (β3γ2L GABAARs; β3γ2L 1:20): 860 ± 87 nA
I max ± SEM (current amplitude elicited by 30 mM GABA) (β3γ2L GABAARs; β3γ2L 1:50): 1000 ± 250 nA
Expression level (current response elicited by GABA) (β3γ2L GABAARs; β3γ2L 1:50): 1000 ± 160 nA
Frac (95% CI), proportion of maximal response mediated by the more potent component (β3γ2L GABAARs; β3γ2L 1:50): 0.74 (0.67–0.80)
n H_1 (Hill slope) (β3γ2L GABAARs; β3γ2L 1:50): 1.0
n H_2 (Hill slope) (β3γ2L GABAARs; β3γ2L 1:50): 1.0
I max ± SEM (current amplitude elicited by 30 mM GABA) (β3γ2L GABAARs; β3γ2L 1:100): 1000 ± 97 nA
Expression level (current response elicited by GABA) (β3γ2L GABAARs; β3γ2L 1:100): 1100 ± 100 nA
Frac (95% CI), proportion of maximal response mediated by the more potent component (β3γ2L GABAARs; β3γ2L 1:100): 0.71 (0.65–0.77)
n H_1 (Hill slope) (β3γ2L GABAARs; β3γ2L 1:100): 1.0
n H_2 (Hill slope) (β3γ2L GABAARs; β3γ2L 1:100): 1.0
